# Source: US12252524B2, “GIP/GLP1 co-agonist compounds” (Eli Lilly and Company, priority 2018, dated 2025)
# Numbered stars: 1 amine (or outer) side, 2 acyl side, 3 side chain; on linkers, the order of the positions; unused ones are H or OH. Square brackets hold non-standard residues; d marks the D form. Side chains are listed from the residue outwards. Peptide text beside a SMILES is read from it. * marks the point of attachment. C20 diacid = O=C(O)CCCCCCCCCCCCCCCCCCC(=O)*; γGlu = O=C(O)[C@H](CCC(=O)[*:2])N[*:1]; AEEA = NCCOCCOCC(=O)O; Aib = CC(C)(N)C(=O)O
# Assays:
# human GIP receptor = target: T1, human GIP receptor (Homo sapiens, UniProt P48546); assay: [125I]-GIP binding (SPA), human GIP receptor; settings: read-out: hGIPR Ki, nM (SEM, n)
# T1 construct: expressed in transfected cells; crude membranes
# T1 sequence (P48546 22-466): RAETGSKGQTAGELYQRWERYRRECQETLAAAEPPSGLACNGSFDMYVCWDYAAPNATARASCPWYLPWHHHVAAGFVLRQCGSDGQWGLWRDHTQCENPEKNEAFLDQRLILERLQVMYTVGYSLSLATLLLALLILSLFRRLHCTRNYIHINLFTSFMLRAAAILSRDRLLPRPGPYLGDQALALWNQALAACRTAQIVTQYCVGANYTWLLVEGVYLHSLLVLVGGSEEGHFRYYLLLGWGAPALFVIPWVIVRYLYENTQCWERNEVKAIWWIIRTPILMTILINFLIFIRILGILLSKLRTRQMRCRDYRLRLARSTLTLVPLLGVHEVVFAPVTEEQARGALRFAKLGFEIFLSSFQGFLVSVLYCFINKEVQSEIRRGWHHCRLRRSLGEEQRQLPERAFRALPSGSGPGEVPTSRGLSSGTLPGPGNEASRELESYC
# Description: (§1) Two methods are used for the preparation of crude cell membranes.
# (§2) Method 1: Frozen cell pellets are lysed on ice in hypotonic buffer containing 50 mM Tris HCl, pH 7.5, and Roche Complete™ Protease Inhibitors with EDTA. The cell suspension is disrupted using a glass Potter-Elvehjem homogenizer fitted with a Teflon® pestle for 25 strokes. The homogenate is centrifuged at 4° C. at 1100×g for 10 minutes. The supernatant is collected and stored on ice while the pellets are resuspended in homogenization buffer and rehomogenized as described above. The homogenate is centrifuged at 1100×g for 10 minutes. The second supernatant is combined with the first supernatant and centrifuged at 35000×g for 1 hour at 4° C. The resulting membrane pellet is resuspended in homogenization buffer containing protease inhibitors at approximately 1 to 3 mg/mL, quick frozen in liquid nitrogen and stored as aliquots in a−80° C. freezer until use.
# (§3) Method 2: Frozen cell pellets are lysed on ice in hypotonic buffer containing 50 mM Tris HCl, pH 7.5, 1 mM MgCl2, Roche Complete™ EDTA-free Protease Inhibitors and 25 units/ml DNAse I (Invitrogen). The cell suspension is disrupted using a glass Potter-Elvehjem homogenizer fitted with a Teflon® pestle for 20 to 25 strokes. The homogenate is centrifuged at 4° C. at 1800×g for 15 minutes. The supernatant is collected and stored on ice while the pellets are resuspended in homogenization buffer (without DNAse I) and rehomogenized as described above. The homogenate is centrifuged at 1800×g for 15 minutes. The second supernatant is combined with the first supernatant and centrifuged an additional time at 1800×g for 15 minutes. The overall supernatant is then centrifuged at 25000×g for 30 minutes at 4° C. The resulting membrane pellet is resuspended in homogenization buffer (without DNAse I) containing protease inhibitors at approximately 1 to 3 mg/mL and stored as aliquots in a−80° C. freezer until use.
# The binding buffer contains 25 mM HEPES, pH 7.4, 2.5 mM CaCl2, 1 mM MgCl2, 0.1% (w/v) bacitracin, 0.003% (w/v) TWEEN©-20, and Roche Complete™ Protease Inhibitors without EDTA. Peptides and GIP are thawed and 3 fold serially diluted in 100% DMSO (10 point concentration response curves). […] Plates are sealed and mixed on a plate shaker (setting 6) for 1 minute and read with a PerkinElmer Trilux MicroBeta© scintillation counter after 2.5 to 12 hours of incubation/settling time at room temperature.
# (§4) Data are analyzed using four-parameter (curve maximum, curve minimum, IC50, Hill slope) nonlinear regression routines (Genedata Screener, version 12.0.4, Genedata AG, Basal, Switzerland). […] Values for Ki are reported as the geometric mean, with error expressed as the standard error of the mean (SEM) and n is equal to the number of independent replicates (determined in assays performed on different days). […] The Ki Ratio is a rapid indication of the apparent affinity of a peptide compared to the native control peptide. […] SEM is only calculated when n=2 or greater non-qualified results exist. Means are expressed as GeoMetric means with the standard error of the mean (SEM) and the number of replicates (n) indicated in parenthesis.
# human Gcg receptor = target: T2, human Gcg receptor (Homo sapiens, UniProt P47871); assay: [125I]-Glucagon binding (SPA), human Gcg receptor; settings: read-out: hGLcgR Ki, nM (SEM, n)
# T2 construct: expressed in transfected cells; crude membranes
# T2 sequence (P47871 26-477): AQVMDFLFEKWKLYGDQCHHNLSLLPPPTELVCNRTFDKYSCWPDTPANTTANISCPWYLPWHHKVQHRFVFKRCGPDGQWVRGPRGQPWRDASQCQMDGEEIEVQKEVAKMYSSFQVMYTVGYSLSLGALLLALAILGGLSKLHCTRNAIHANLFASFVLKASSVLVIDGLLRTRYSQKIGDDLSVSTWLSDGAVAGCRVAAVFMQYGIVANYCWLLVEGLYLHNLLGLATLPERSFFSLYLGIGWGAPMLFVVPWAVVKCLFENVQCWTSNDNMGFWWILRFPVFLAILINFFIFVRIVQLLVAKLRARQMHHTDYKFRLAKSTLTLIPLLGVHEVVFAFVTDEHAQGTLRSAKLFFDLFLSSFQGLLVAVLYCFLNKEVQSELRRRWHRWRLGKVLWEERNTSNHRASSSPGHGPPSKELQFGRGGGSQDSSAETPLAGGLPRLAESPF
# Description: as §1, §2, §3
# The human Gcg receptor binding assays are performed using a Scintillation Proximity Assay (SPA) format with wheat germ agglutinin (WGA) beads (Perkin Elmer). The binding buffer contains 25 mM 4-(2-hydroxyethyl)-1-piperazineethanesulfonic acid (HEPES), pH 7.4, 2.5 mM CaCl2, 1 mM MgCl2, 0.1% (w/v) bacitracin (Research Products), 0.003% (w/v) Polyoxyethylenesorbitan monolaurate (TWEEN©-20), and Roche Complete™ Protease Inhibitors without EDTA. […] Plates are sealed and mixed on a plate shaker (setting 6) for 1 minute and read with a PerkinElmer Trilux MicroBeta© scintillation counter after 12 hours of incubation/settling time at room temperature.
# as §4
# [1] = target: human GLP-1 receptor (GLP-1R) (Homo sapiens, UniProt P43220); assay: cAMP pharmacological functional assay in presence of casein, hGLP-1R; assay type: cell-based; settings: HEK293 cells expressing hGLP-1R, 0.1% Casein, geometric mean; read-out: hGLP1R cAMP Rel EC50 nM (SEM, n)
# Sequence of human GLP-1 receptor (GLP-1R) (P43220 24-463): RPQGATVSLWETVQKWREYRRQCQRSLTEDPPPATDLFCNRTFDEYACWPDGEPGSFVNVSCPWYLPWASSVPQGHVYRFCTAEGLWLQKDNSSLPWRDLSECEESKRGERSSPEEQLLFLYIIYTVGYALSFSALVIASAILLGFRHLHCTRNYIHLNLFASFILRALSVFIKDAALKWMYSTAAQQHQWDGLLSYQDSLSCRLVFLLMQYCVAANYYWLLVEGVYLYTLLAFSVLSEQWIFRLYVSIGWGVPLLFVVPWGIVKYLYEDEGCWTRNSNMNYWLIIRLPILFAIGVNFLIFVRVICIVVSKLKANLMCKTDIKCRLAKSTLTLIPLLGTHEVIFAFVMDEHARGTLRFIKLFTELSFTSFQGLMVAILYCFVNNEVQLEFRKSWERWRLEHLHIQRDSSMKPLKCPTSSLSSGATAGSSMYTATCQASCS
# human GLP-1R = human GLP-1R (Homo sapiens, UniProt P43220); assay: [125I]-GLP-1 binding (SPA), human GLP-1 receptor; parameters: expressed in transfected cells; crude membranes; settings: read-out: hGLP1R Ki, (nM) (SEM, n)
# Sequence of human GLP-1R (P43220 24-463): as above
# Description: as §1, §2, §3
# The binding buffer contains 25 mM HEPES, pH 7.4, 2.5 mM CaCl2, 1 mM MgCl2, 0.1% (w/v) bacitracin, 0.003% (w/v) TWEEN©-20, and Roche Complete™ Protease Inhibitors without EDTA.
# as §4
# [2] = target: T3, gastric inhibitory peptide receptor (GIPR) (Homo sapiens, UniProt P48546); assay: cAMP pharmacological functional assay in presence of casein, hGIPR; assay type: cell-based; settings: HEK293 cells expressing hGIPR, 0.1% Casein, geometric mean; read-out: hGIPR cAMP Rel EC50 nM (SEM, n)
# T3 sequence (P48546 22-466): T1 sequence (P48546 22-466)
SMILES,Ki (human GIP receptor) [nM],Ki (human Gcg receptor) [nM],EC50 [1] [nM],Ki (human GLP-1R) [nM],EC50 [2] [nM]
CC[C@H](C)[C@H](NC(=O)[C@H](Cc1ccccc1)NC(=O)[C@H](C)NC(=O)C(C)(C)NC(=O)[C@H](CCC(N)=O)NC(=O)[C@H](C)NC(=O)[C@H](CCCCNC(=O)COCCOCCNC(=O)COCCOCCNC(=O)CC[C@H](NC(=O)CCCCCCCCCCCCCCCCCCC(=O)O)C(=O)O)NC(=O)[C@H](CO)NC(=O)[C@H](CC(=O)O)NC(=O)[C@H](CC(C)C)NC(=O)[C@H](CC(C)C)NC(=O)[C@@H](NC(=O)[C@H](CO)NC(=O)[C@H](Cc1ccc(O)cc1)NC(=O)[C@H](CC(=O)O)NC(=O)[C@H](CO)NC(=O)[C@@H](NC(=O)[C@H](Cc1ccccc1)NC(=O)[C@@H](NC(=O)CNC(=O)[C@H](CCC(=O)O)NC(=O)C(C)(C)NC(=O)[C@@H](N)Cc1ccc(O)cc1)[C@@H](C)O)[C@@H](C)O)[C@@H](C)CC)C(=O)N[C@@H](CCC(=O)O)C(=O)N[C@@H](Cc1ccc(O)cc1)C(=O)N[C@@H](CC(C)C)C(=O)N[C@@H](CC(C)C)C(=O)N[C@@H](CCC(=O)O)C(=O)NCC(=O)NCC(=O)N1CCC[C@H]1C(=O)N[C@@H](CO)C(=O)N[C@@H](CO)C(=O)NCC(=O)N[C@@H](C)C(=O)N1CCC[C@H]1C(=O)N1CCC[C@H]1C(=O)N1CCC[C@H]1C(=O)N[C@@H](CO)C(N)=O [Example 7] (H-Y[Aib]EGTFTSDYSILLDSK([AEEA-AEEA-γGlu-C20 diacid])AQ[Aib]AFIEYLLEGGPSSGAPPPS-NH2),0.252,198,0.47,43.3,0.461
CC[C@H](C)[C@H](NC(=O)[C@H](CC(C)C)NC(=O)[C@H](Cc1ccc(O)cc1)NC(=O)[C@H](CCC(=O)O)NC(=O)[C@@H](NC(=O)[C@H](Cc1ccccc1)NC(=O)[C@H](C)NC(=O)C(C)(C)NC(=O)[C@H](CCC(N)=O)NC(=O)[C@H](C)NC(=O)[C@H](CCCCNC(=O)COCCOCCNC(=O)COCCOCCNC(=O)CC[C@H](NC(=O)CCCCCCCCCCCCCCCCCCC(=O)O)C(=O)O)NC(=O)[C@H](CCCCN)NC(=O)[C@H](CC(=O)O)NC(=O)[C@H](CC(C)C)NC(=O)[C@H](CC(C)C)NC(=O)[C@@H](NC(=O)[C@H](CO)NC(=O)[C@H](Cc1ccc(O)cc1)NC(=O)[C@H](CC(=O)O)NC(=O)[C@H](CO)NC(=O)[C@@H](NC(=O)[C@H](Cc1ccccc1)NC(=O)[C@@H](NC(=O)CNC(=O)[C@H](CCC(=O)O)NC(=O)C(C)(C)NC(=O)[C@@H](N)Cc1ccc(O)cc1)[C@@H](C)O)[C@@H](C)O)[C@@H](C)CC)[C@@H](C)CC)C(=O)N[C@@H](CCC(=O)O)C(=O)NCC(=O)NCC(=O)N1CCC[C@H]1C(=O)N[C@@H](CO)C(=O)N[C@@H](CO)C(=O)NCC(=O)N[C@@H](C)C(=O)N1CCC[C@H]1C(=O)N1CCC[C@H]1C(=O)N1CCC[C@H]1C(=O)N[C@@H](CO)C(N)=O [Example 8],0.0772,206,0.148,2.84,0.0848
CC[C@H](C)[C@H](NC(=O)[C@H](CC(C)C)NC(=O)[C@H](Cc1ccc(O)cc1)NC(=O)[C@H](CCC(=O)O)NC(=O)[C@@H](NC(=O)[C@H](Cc1ccccc1)NC(=O)[C@H](C)NC(=O)C(C)(C)NC(=O)[C@H](CCC(N)=O)NC(=O)[C@H](C)NC(=O)[C@H](CCCCNC(=O)COCCOCCNC(=O)COCCOCCNC(=O)CC[C@H](NC(=O)CCCCCCCCCCCCCCCCCCC(=O)O)C(=O)O)NC(=O)[C@H](CO)NC(=O)[C@H](CC(=O)O)NC(=O)[C@H](CC(C)C)NC(=O)[C@H](CC(C)C)NC(=O)[C@@H](NC(=O)[C@H](CO)NC(=O)[C@H](Cc1ccc(O)cc1)NC(=O)[C@H](CC(=O)O)NC(=O)[C@H](CO)NC(=O)[C@@H](NC(=O)[C@H](Cc1ccccc1)NC(=O)[C@@H](NC(=O)CNC(=O)[C@H](CCC(=O)O)NC(=O)C(C)(C)NC(=O)[C@@H](N)Cc1ccc(O)cc1)[C@@H](C)O)[C@@H](C)O)[C@@H](C)CC)[C@@H](C)CC)C(=O)N[C@@H](CCC(=O)O)C(=O)NCC(=O)NCC(=O)N1CCC[C@H]1C(=O)N[C@@H](CO)C(=O)N[C@@H](CO)C(=O)NCC(=O)N[C@@H](C)C(=O)N1CCC[C@H]1C(=O)N1CCC[C@H]1C(=O)N1CCC[C@H]1C(=O)N[C@@H](CO)C(N)=O [Example 9] (H-Y[Aib]EGTFTSDYSILLDSK([AEEA-AEEA-γGlu-C20 diacid])AQ[Aib]AFIEYLIEGGPSSGAPPPS-NH2),0.127,375,0.194,14.9,0.21
CC[C@H](C)[C@H](NC(=O)[C@H](CO)NC(=O)[C@H](CC(=O)O)NC(=O)[C@H](CC(C)C)NC(=O)[C@H](CC(C)C)NC(=O)[C@@H](NC(=O)[C@H](CO)NC(=O)[C@H](Cc1ccc(O)cc1)NC(=O)[C@H](CC(=O)O)NC(=O)[C@H](CO)NC(=O)[C@@H](NC(=O)[C@H](Cc1ccccc1)NC(=O)[C@@H](NC(=O)CNC(=O)[C@H](CCC(=O)O)NC(=O)C(C)(C)NC(=O)[C@@H](N)Cc1ccc(O)cc1)[C@@H](C)O)[C@@H](C)O)[C@@H](C)CC)C(=O)N[C@@H](C)C(=O)N[C@@H](CCC(N)=O)C(=O)NC(C)(C)C(=O)N[C@@H](C)C(=O)N[C@@H](Cc1ccccc1)C(=O)N[C@H](C(=O)N[C@@H](CCCCNC(=O)COCCOCCNC(=O)COCCOCCNC(=O)CC[C@H](NC(=O)CCCCCCCCCCCCCCCCCCC(=O)O)C(=O)O)C(=O)N[C@@H](Cc1ccc(O)cc1)C(=O)N[C@@H](CC(C)C)C(=O)N[C@@H](CC(C)C)C(=O)N[C@@H](C)C(=O)NC(C)(C)C(=O)NCC(=O)N1CCC[C@H]1C(=O)N[C@@H](CO)C(=O)N[C@@H](CO)C(=O)NCC(=O)N[C@@H](C)C(=O)N1CCC[C@H]1C(=O)N1CCC[C@H]1C(=O)N1CCC[C@H]1C(=O)N[C@@H](CO)C(N)=O)[C@@H](C)CC [Example 10] (H-Y[Aib]EGTFTSDYSILLDSIAQ[Aib]AFIK([AEEA-AEEA-γGlu-C20 diacid])YLLA[Aib]GPSSGAPPPS-NH2),0.109,226,7.64,9.33,1.28
